Data published in patent US6528309B2, “Vacuum-mediated desiccation protection of cells” (The Regents of the University of California, priority 2001, dated 2003).
Where two headings read alike, the source gives them in different places.

Tests used:
[1] = tested on: Basinger human fibroblasts; test: Drying tolerance of Basinger human fibroblasts with disaccharides and polyols (trypan blue exclusion); assay type: cell-based; conditions: for Cell Culture Survival (%): concentration (50 mM or 10% solution), vacuum; for effectiveness in protecting the viability of the cells (in words): trypan blue exclusion
Procedure: (§1) Trypan blue exclusion was done by adding 10 μl of 0.4% trypan blue in 0.85% NaCl (Gibco BRL) to 10 μl of a single cell suspension of trypsinized cells and counting the number of trypan blue positive and negative cells. Colony assays were done by harvesting adherent cells 8-12 hours after rehydration, counting by hemacytometer, and plating either 200 or 300 cells in a 10 cm tissue culture dish. The same number of cells from a non-desiccated control were plated in parallel. Approximately 1 week later, the plates were stained with Giemsa and the colonies were counted.

[2] = tested on: Basinger fibroblast cells; test: Cytotoxicity of carbohydrates and polyols (maximum usable concentration)
Procedure: To determine whether any of these molecules have properties that would allow them to substitute for trehalose in promoting desiccation tolerance in mammalian cells, a number of carbohydrates and polyols were systematically studied. Each was tested initially to determine the maximum concentration at which they could be used without causing cytotoxicity. The ability of the different molecules to mediate desiccation tolerance was then tested at the optimal concentration for each.
Thus, in these experiments, Basinger fibroblast cells were tested in long term desiccation experiments (i.e., longer than 5 days of drying). In these experiments, Basinger cells at approximately 75% confluence were exposed to a polyol or disaccharide for 12 hours prior to removal of medium and desiccation under vacuum. Thermal shock was used to introduce the disaccharides or polyols into the cells to produce equal concentrations final of 50 mM in the cultures (with equal numbers of cells). […] FIG. 7 also provides a graphic representation of the results for various test disaccharides and polyols.

12F cells [3] = test: Desiccation tolerance of 12F cells at different storage temperatures, with trehalose (trypan blue exclusion / FACS); assay type: cell-based, human; conditions: for Cell Survival: trehalose 50 mM by thermal shock, dried under vacuum
Procedure: as §1
For thermal shock experiments, trehalose solution (50 mM final concentration) in DMEM and 10% FBS, was added to a pellet of 1×10^6 cells to produce a cell suspension which was then incubated on ice for 5 minutes, and then for 10 minutes in a 37° C. water bath (Daw et al., Cryobiol., 10:126-133 [1973]; and Moore et al., Cell 54:777-785 [1988]). This cycle was repeated twice. For adherent cells, the cells were plated in 6-well plates and grown to 90-95% confluence prior to thermal shock with 50 mM trehalose as described above. These methods are described in more detail in the following Examples. However, it is not intended that the present invention be limited to any particular temperatures used for thermal shock, as it is known in the art that in some cases, cells can be shocked using different temperatures.
In these experiments, the effects of temperature and drying on cell survival were investigated. In addition, the effects of the presence of trehalose on cell survival under different conditions of temperature and drying were investigated. Ten 6-well plates of 12F cells were prepared at about 90-95 confluence. The day prior to the beginning of the drying period, five plates were exposed to thermal shock to introduce trehalose into the cells (as described above). On the first day of the drying period, all of the plates were dried, and the plates were incubated in pairs (i.e., one with trehalose and one without trehalose) at −70° C., −20° C., room temperature, and 37° C., for 4 days.
In additional experiments to determine the effect of temperature on the ability of cells to withstand desiccation, 6-well plates with 12F cells were prepared at approximately 90% confluence, dried under vacuum at room temperature as described above, and stored at −70° C., −20° C., 4° C., 20° C., and 37° C. for 3 days. In these experiments, two plates were used, one included trehalose (50 mM) introduced into the cells using thermal shock, as described above. […] The cells were then rehydrated and the viability was determined by trypan blue exclusion. […] The optimum survival temperature was determined to be about 20° C. (i.e., approximately room temperature). At the other temperatures examined, there were almost no viable cells remaining, as determined by trypan blue exclusion, and none were able to grow and form colonies (results not shown). In these experiments, the presence (“Tre(+)”)/absence (“Tre(−)”) of trehalose appeared to have no impact on the optimum temperature.
No colonies were ever grown from cells maintained in the desiccated state at temperatures other than approximately 20° C.

[4] = tested on: Basinger human fibroblasts; test: Cell survival after drying with trehalose combinations and trehalose alone; assay type: cell-based
Procedure: In this Example, experiments to observe the effects of various combinations of sugars on cell viability are described. The results obtained for these combinations were then compared with the results obtained for trehalose alone. The combinations used were trehalose with glycerol, and trehalose with mannitol. Controls were also tested with no sugars, and trehalose alone. In these experiments Basinger human fibroblasts were used.

Adherent Basinger cells = test: Trehalose dose response for desiccation tolerance and cytotoxicity; assay type: cell-based, human; conditions: 24 hours incubation
Procedure: In these experiments, the effects of trehalose concentration on desiccation tolerance were determined. Adherent Basinger cells were prepared in 6-well plates, and incubated at 37° C., with 10% CO2. When the cells reached 65-70% confluence, the cells were incubated with varying concentrations of trehalose (10 mM, 25 mM, 50 mM, 150 mM, and 500 mM) for 24 hours. The cells were exposed to thermal shock and desiccated as described above.

12F cells [5] = test: Preliminary vacuum drying experiments; assay type: cell-based
Basinger cells = test: Colony (plating efficiency) assay after desiccation and rehydration; assay type: cell-based, human; conditions: for ability to mediate desiccation tolerance, singly and together (in words): 3% glycerol and/or 50 mM trehalose, thermal shock, vacuum (FIG. 8); for ability of the cells to form colonies following rehydration: results not shown
Procedure: as §1
To definitively determine the effect of different desiccation protocols, an assay based on colony formation (i.e., “plating efficiency”) was used, as described in the following Examples. In this assay, rehydrated cells were replated at low density and the number of distinct colonies counted. In this way, only rehydrated cells able to undergo cell division were counted as “viable.” The pattern of viability determined by trypan blue exclusion and colony assay were the same (e.g., compare FIG. 2A with FIG. 2B), validating the use of trypan blue to measure the effect of various treatments on cell viability.
In subsequent experiments, trehalose was tested in combination with glycogen, glycerol, and sucrose. As for some anhydrobiotic organisms (e.g., Artemia cysts) glycerol accounts for about 4% of their dry weight and trehalose constitutes up to about 14% of their dry weight, these experiments were conducted to determine the effects of these compounds on cell survival. In this Figure, results are shown for Basinger cells plated in 6-well plates and exposed to 3% glycerol and/or 50 mM trehalose immediately prior to undergoing thermal shock and desiccation under vacuum. After the drying period was complete, media were added and the cells were incubated overnight. The following day, the cells were harvested and plated for viability determination using the colony assay described herein.

12F cells [6] = test: Effect of trehalose and vacuum on desiccation tolerance of 12F cells; assay type: cell-based, human; conditions: trehalose 50 mM, three days dried
Procedure: In this Example, experiments conducted to determine the effect of trehalose and vacuum on desiccation tolerance of 12F cells are described. The 12F cells were prepared at 95% confluence in five 6-well plates. On plates 1 (V+T+) and 3 (V−T+), trehalose (50 mM final concentration) was introduced by thermal shock, as described in above. Medium was then removed from each of the wells, and Plates 1 (V+T+) and 2 (V+T−) were vacuum sealed using the Magic Vac vacuum packaging system (Flaem Nuova) and maintained at room temperature. Plates 3 and 4 were sealed in bags without vacuum and also maintained at room temperature. Three days later, medium (DMEM) was added to the plates, and the plates incubated at 37° C. with 10% CO2 overnight. The next day, the cells were harvested and stained with trypan blue in order to determine the dead/live ratio.
In some experiments, the samples were divided. One portion of the sample was used in the analysis of live/dead cells using trypan blue, as described above, and the second portion was plated into fresh culture media at 25× dilution and incubated until cells grew in the culture. This allowed counting of the live cells based on their “plating efficiency.” This was considered to be the best way to estimate the ratio of dead to alive cells.

12F and Basinger cells = conditions: human

Compound	Cell Culture Survival (%) ([1]; Day 3 of drying)	Cell Culture Survival (%) ([1]; Day 4 of drying)	Cell Culture Survival (%) ([1]; Day 5 of drying)	Cell Culture Survival (%) ([1]; Day 6 of drying)	effectiveness in protecting the viability of the cells (in words) [1]	further results
OC[C@H]1O[C@H](O[C@H]2[C@H](O)[C@@H](O)C(O)O[C@@H]2CO)[C@H](O)[C@@H](O)[C@@H]1O (mixture of isomers) [Maltose]	31	17	4.2	2.5	–	–
OC[C@H]1O[C@@](CO)(O[C@H]2O[C@H](CO)[C@@H](O)[C@H](O)[C@H]2O)[C@@H](O)[C@@H]1O [Sucrose]	39	28	9.1	7.2	as effective as trehalose	–
OC[C@@H](O)[C@@H](O)[C@H](O)[C@@H](O)CO [Sorbitol]	29	8	3.1	0.8	–	–
Glycogen	40.6	21.5	14	9.5	almost equally as effective	–
Dextran	0.9	2.4	1.7	0.8	completely ineffective	concentration found to be toxic (very low survival, no growth upon passage) [2]: ≥ 5%
OC[C@@H](O)[C@@H](O)[C@H](O)[C@H](O)CO [Mannitol]	32	11	3.1	5.4	–	–
OC[C@H]1O[C@H](O[C@H]2O[C@H](CO)[C@@H](O)[C@H](O)[C@H]2O)[C@H](O)[C@@H](O)[C@@H]1O [Trehalose, D (+) trehalose dihydrate]	45	38	12	10.5	–	cells appearing to be "live" (FACS) (12F cells [3]; dried in the presence of trehalose, incubated at −70° C., no growth upon plating): about 4%; survival rate (in words) (12F cells [3]; incubated at room temperature in the presence of trehalose): very high; Cell Survival (12F cells [3]; storage at RT (room temperature)): 34%; Cell Survival (12F cells [3]; storage temperature 4° C.): 2.8%; Cell Survival (12F cells [3]; storage temperature 37° C.): 0.4%; Cell Survival (12F cells [3]; storage temperature −20° C.): 0.7%; Cell Survival (12F cells [3]; storage temperature −70° C.): 4%; Cell Survival ([4]; Day 3): 7.5; Cell Survival ([4]; Day 4): 0.8; Cell Survival ([4]; Day 5): 2.2; Cell Survival ([4]; Day 6): 1.5; trehalose concentration resulting in obvious cytotoxicity (Adherent Basinger cells): above 150 mM; optimal concentration of trehalose for desiccation tolerance (Adherent Basinger cells; thermal shock, desiccation, 10-500 mM tested): 50 mM; trehalose concentration at which cytotoxic effects were observed (12F cells [5]): more than 50 mM; ability to mediate desiccation tolerance, singly and together (in words) (Basinger cells): roughly similar; ability of the cells to form colonies following rehydration (Basinger cells): able to maintain cellular viability; survival rate compared to the controls (in words) (12F cells [6]): much higher survival rate
OCC(O)CO [glycerol]	2.6	4.8	0.7	3.1	–	optimum concentration [2]: 3%; concentration with long-term cytotoxic effect ([2]; human): above 4%; concentration found to be toxic (very low survival, no growth upon passage) ([2]; human, 12 h): ≥ 5%; ability to mediate desiccation tolerance, singly and together (in words) (Basinger cells): roughly similar; ability of the cells to form colonies following rehydration (Basinger cells): able to maintain cellular viability; concentration toxic for cells (12F and Basinger cells): above 5%
